# Test results from patent US10285959B2, “Combination therapies using HDAC inhibitors” (priority 2005, dated 2019).
# Experiments:
# [1] = test system: P388 i.p. mouse leukemia tumour; test: P388 mouse leukemia model, survival;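 further: female B6D1F1 mice implanted i.p. with P388 leukemia cells, Kaplan-Meier survival analysis, ILS% equals treated minus vehicle control median survival, divided by control median, times 100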
# Procedure: P388 mouse leukemia cells were injected intrapertoneally (IP) into B6D1F1 female mice. […] Kaplan-Meier survival distribution graphs are shown for each combination.
# The percentage Increased Life Span (ILS%) was calculated as the median survival (treatment group) minus median survival (vehicle control) divided by median survival (vehicle control) multiplied with 100:
# [2] = test system: HCT116 colon cancer xenograft; test: HCT116 colon cancer subcutaneous xenograft model; type: in vivo, nu/nu mice
# Procedure: The 5-FU dose was set at 15 mg/kg.
# HCT116 colon cancer xenograph. Daily i.p. treatments with PXD101 (morning) and 5-FU (afternoon). Mean/SEM, n=10(9).
# [3] = test system: EGFR protein in A431 cells; test: Western blot of EGFR protein levels; type: cell-based, human; details: 24 hours treatment
# Text: The blot was reprobed with an anti-actin antibody to control for lane loading.
# diverse tumor cell lines = test: Proliferation of tumor cell lines; type: cell-based
# Calu-3 = test: Growth inhibition/proliferation, PXD101 with Tarceva (CellTiter-Glo); type: cell-based, human; details: wtEGFR
# HCC-4006 = test: Growth inhibition/proliferation, PXD101 with Tarceva; type: cell-based; details: mutant EGFR
# [4] = PXD101(60) mg/kg/treat i.p. daily for 5 days starting day 3
# [5] = PXD101(100) mg/kg/treat i.p. daily for 5 days starting day 3
# [6] = 5-FU(30) mg/kg/treat i.p. daily for 5 days starting day 3
structure (smiles),measurement,setting,value
O=C(/C=C/c1cccc(S(=O)(=O)Nc2ccccc2)c1)NO [PXD-101],ILS % (Increased Life Span),[1]; [4],30.0%
same,"Survival time, Max",[1]; [4],14
same,"Survival time, Median survival",[1]; [4],13
same,"Survival time, Min",[1]; [4],12
same,ILS % (Increased Life Span),[1]; [5],20.0%
same,"Survival time, Max",[1]; [5],14
same,"Survival time, Median survival",[1]; [5],12
same,"Survival time, Min",[1]; [5],11
same,Cumulative Survival,"[1]; day 9, PXD101 (60)",1
same,Cumulative Survival,"[1]; day 9, PXD101 (100)",1
same,Cumulative Survival,"[1]; day 10, PXD101 (60)",1
same,Cumulative Survival,"[1]; day 10, PXD101 (100)",1
same,Cumulative Survival,"[1]; day 11, PXD101 (60)",1
same,Cumulative Survival,"[1]; day 11, PXD101 (100)",0.85
same,Cumulative Survival,"[1]; day 12, PXD101 (60)",0.70
same,Cumulative Survival,"[1]; day 12, PXD101 (100)",0.43
same,Cumulative Survival,"[1]; day 13, PXD101 (60)",0.15
same,Cumulative Survival,"[1]; day 13, PXD101 (100)",0.43
same,Cumulative Survival,"[1]; day 14, PXD101 (60)",0
same,Cumulative Survival,"[1]; day 14, PXD101 (100)",0.15
same,Cumulative Survival,"[1]; day 15, PXD101 (100)",0
same,tumour growth inhibition,[2]; PXD-101 60 and 100 mg/kg q1d x5/week for 2 weeks,significant tumour growth inhibition
same,level of EGFR protein,[3],apparently decreases the level of EGFR protein
same,IC50,diverse tumor cell lines,0.08 to 2.43 µM
"Nc1nc(F)nc2c1ncn2[C@@H]1O[C@H](CO)[C@@H](O)[C@@H]1O [Fludarabin, Fludarabine]",Cumulative Survival,"[1]; day 8, Fludarabin (50)",1.00
same,Cumulative Survival,"[1]; day 9, Fludarabin (50)",0.85
same,Cumulative Survival,"[1]; day 10, Fludarabin (50)",0.55
same,Cumulative Survival,"[1]; day 11, Fludarabin (50)",0.40
same,Cumulative Survival,"[1]; day 12, Fludarabin (50)",0.40
same,Cumulative Survival,"[1]; day 13, Fludarabin (50)",0.40
same,Cumulative Survival,"[1]; day 14, Fludarabin (50)",0.40
same,Cumulative Survival,"[1]; day 15, Fludarabin (50)",0.30
same,Cumulative Survival,"[1]; day 16, Fludarabin (50)",0.30
same,Cumulative Survival,"[1]; day 17, Fludarabin (50)",0.15
same,Cumulative Survival,"[1]; day 18, Fludarabin (50)",0.15
same,Cumulative Survival,"[1]; day 19, Fludarabin (50)",0
C#Cc1cccc(Nc2ncnc3cc(OCCOC)c(OCCOC)cc23)c1 [Tarceva ®],responsiveness of cells to Tarceva,Calu-3,Calu-3 (wtEGFR; moderately responsive to Tarceva ®)
same,responsiveness of cells to Tarceva,HCC-4006,HCC-4006 (mutant EGFR; strongly responsive to Tarceva ®)
"O=c1[nH]cc(F)c(=O)[nH]1 [5-FU, 5-fluorouracil]",ILS % (Increased Life Span),[1]; [6],60.0%
same,"Survival time, Max",[1]; [6],18
same,"Survival time, Median survival",[1]; [6],16
same,"Survival time, Min",[1]; [6],15
same,Cumulative Survival,"[1]; day 9, 5-FU (30)",1
same,Cumulative Survival,"[1]; day 9, 5-FU (50)",1.00
same,Cumulative Survival,"[1]; day 10, 5-FU (30)",1
same,Cumulative Survival,"[1]; day 10, 5-FU (50)",0.55
same,Cumulative Survival,"[1]; day 11, 5-FU (30)",1
same,Cumulative Survival,"[1]; day 11, 5-FU (50)",0.15
same,Cumulative Survival,"[1]; day 12, 5-FU (30)",1
same,Cumulative Survival,"[1]; day 12, 5-FU (50)",0.15
same,Cumulative Survival,"[1]; day 13, 5-FU (30)",1
same,Cumulative Survival,"[1]; day 13, 5-FU (50)",0.15
same,Cumulative Survival,"[1]; day 14, 5-FU (30)",1
same,Cumulative Survival,"[1]; day 14, 5-FU (50)",0.15
same,Cumulative Survival,"[1]; day 15, 5-FU (30)",0.85
same,Cumulative Survival,"[1]; day 15, 5-FU (50)",0.15
same,Cumulative Survival,"[1]; day 16, 5-FU (30)",0.55
same,Cumulative Survival,"[1]; day 16, 5-FU (50)",0.15
same,Cumulative Survival,"[1]; day 17, 5-FU (30)",0.15
same,Cumulative Survival,"[1]; day 17, 5-FU (50)",0.15
same,Cumulative Survival,"[1]; day 18, 5-FU (30)",0
same,Cumulative Survival,"[1]; day 18, 5-FU (50)",0.15
same,Cumulative Survival,"[1]; day 19, 5-FU (50)",0.15
same,Cumulative Survival,"[1]; day 20, 5-FU (50)",0.15
same,Cumulative Survival,"[1]; day 21, 5-FU (50)",0.15
same,Cumulative Survival,"[1]; day 22, 5-FU (50)",0.15
same,Cumulative Survival,"[1]; day 23, 5-FU (50)",0.15
same,Cumulative Survival,"[1]; day 24, 5-FU (50)",0
same,tumour growth inhibition,[2]; 5-FU 15 mg/kg,ineffective
"O=C1[O][Pt]2([NH][C@@H]3CCCC[C@H]3[NH]2)[O]C1=O [Oxali, Oxaliplatin]",Cumulative Survival,"[1]; day 9, Oxali (5)",0.45
same,Cumulative Survival,"[1]; day 10, Oxali (5)",0
